Tests used:
Format in all cases: in vivo
[1] = test system: nightshade (eastern black nightshade, Solanum ptycanthum); assay: Test F pre-/postemergence: nightshade; conditions: Preemergence
In short: (§1)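 Seeds were sown in silt loam soil and sprayed preemergence with test chemical in a non-phytotoxic solvent mixture containing surfactant; postemergence treatments went onto plants 2 to 18 cm tall (1- to 4-leaf stage) grown in peat moss/vermiculite medium. After 14 to 21 days in a greenhouse, injury was rated visually against controls, 0 (no effect) to 100 (complete control).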

[2] = test system: poinsettia, wild (wild poinsettia, Euphorbia heterophylla); assay: Test F pre-/postemergence: poinsettia, wild; conditions: Preemergence
In short: as §1

Oilseed Rape = assay: Test C preemergence: oilseed rape; conditions: scale of 0 to 100, 0 is no effect, 100 is complete control
[3] = 16 g ai/ha, scale 0 to 100 (0 no effect, 100 complete control)
[4] = 31 g ai/ha, scale 0 to 100 (0 no effect, 100 complete control)

Compound: CCCc1nn(-c2ccc(F)cc2)nc1Cc1ccnc(C(F)(F)F)c1 [Compound 153]
- Plant response rating, Nightshade [1, 3]: 50
- Plant response rating, Nightshade [1, 4]: 50
- Plant response rating, Nightshade ([1]; 125 g ai/ha, scale 0 to 100): 100
- Plant response rating, Nightshade ([1]; 250 g ai/ha, scale 0 to 100): 100
- Plant response rating, Poinsettia, Wild [2, 3]: 0
- Plant response rating, Poinsettia, Wild [2, 4]: 25
- Plant response rating, Poinsettia, Wild ([2]; 125 g ai/ha, scale 0 to 100): 70
- Plant response rating, Poinsettia, Wild ([2]; 250 g ai/ha, scale 0 to 100): 98
- Plant response rating, Oilseed Rape (Oilseed Rape; 31 g ai/ha): 90
- Plant response rating, Oilseed Rape (Oilseed Rape; 62 g ai/ha): 95

— US9302999B2, “Substituted triazoles as herbicides” (E. I. DU PONT DE NEMOURS AND COMPANY, priority 2012, dated 2016)
